Measurements taken from patent US5166204A, “Isoindole derivatives and salts thereof and antitumor agent comprising the same” (Toyama Chemical Co., Ltd., priority 1989, dated 1992).
Values after ≈ are worked out from the molar mass of the structure shown.

How the values were obtained:
Ehrlich solid cancer = assay: Effect on Ehrlich solid cancer (tumor weight in mice); type: in vivo, ddY strain mice; conditions: Mus musculus, iv, 240 h
Experimental: (c) Effect on Ehrlich Solid Cancer 5×10^6 Ehrlich cells were transplanted to ddY strain mice in groups of 7 members (male, 5-week old, weight=about 25 g) subcutaneously at the left groin on day 0. […] Only the aqueous 5% glucose solution was administered to the control group. […] From the (a) and (b) was calculated T/C (%), using the following equation: T/C (%)=(a/b)×100

HeLa S-3 cells = assay: HeLa S-3 cell growth inhibition test; type: cell-based; conditions: Homo sapiens, 96 h; HeLa S-3 cells, 37° C., 4 days, Giemsa's staining; read-out: minimum growth inhibition concentration (MIC)
Experimental: (a) HeLa S-3 Cell Growth Inhibition Test
A test compound was appropriately diluted with a liquid medium (a minimum essential medium containing a 10% fecal calf serum). The resulting liquid was poured into each well of a 96-well micro titer plate, in an amount of 0.1 ml/well. Then, HeLa S-3 cells were diluted with the same liquid medium so that the cell concentration became 2×10^4 cells/ml, and the resulting liquid was poured into each well of the above plate in an amount of 0.1 ml/well. The resulting plate was allowed to stand in a CO2 gas incubator of 37° C. for 4 days, to effect incubation. After the incubation, the supernatant liquid in each well was removed and fixation by ethanol was effected for 10 minutes. The fixed cells were tinted with a Giemsa's staining solution to determine the minimum growth inhibition concentration (MIC) of test compound for HeLa S-3 cells.

L-1210 ascites tumor = assay: Effect on L-1210 ascites tumor (survival of tumor-transplanted mice); type: in vivo, CDF1 strain mice; conditions: Mus musculus, L1210, ip, 720 h, twice on day 1 and day 5, survival observed 30 days, read-out: prolongation of survival time T/C; for response vs control in vivo at 1 mg/kg: 1 mg/kg i.p.
Experimental: (b) Effect on L-1210 Ascites Tumor
1×10^5 L-1210 cells were intraperitoneally transplanted to CDF1 strain mice in groups of 6 members (male, 5-week old, weight =about 25 g) on day 0. A test compound dissolved in an aqueous 5% glucose solution was intraperitoneally administered to the test group of the above mice twice on day 1 and day 5. Only the aqueous 5% glucose solution was administered to the control group. Incidentally, the 25 mg/kg administration of the test compound No. 30 was effected only once on day 1. There were examined (a) the average survival days of the test group and (b) the average survival days of the control group. The examination period for survival days was 30 days. From the (a) and (b) was calculated a prolongation of survival time [T/C (%)], using the following equation: […]

Row | SMILES | response vs control in vivo at 50 mg/kg (Ehrlich solid cancer; 50 mg/kg i.v., daily for six consecutive days (day 1 to 6), day 10, read-out: T/C (average tumor weight, treated/control)) [%] | MIC (HeLa S-3 cells) [µg/mL] | response vs control in vivo at 25 mg/kg (L-1210 ascites tumor; 25 mg/kg i.p.) [%] | response vs control in vivo at 15 mg/kg (Ehrlich solid cancer; 15 mg/kg i.v., twice on day 1 and day 5, day 10, read-out: T/C (average tumor weight, treated/control)) [%] | response vs control in vivo at 1 mg/kg (L-1210 ascites tumor) [%] | response vs control in vivo at 5 mg/kg (L-1210 ascites tumor; 5 mg/kg i.p.) [%] | response vs control in vivo at 5 mg/kg (Ehrlich solid cancer; 5 mg/kg i.v., twice on day 1 and day 5, day 10, read-out: T/C (average tumor weight, treated/control)) [%]
1 | CN(C)CCN1C(=O)c2ccc3[nH]c4ccccc4c3c2C1=O [compound 1] | 18 | 3.13 (≈ 10.2 µM) | 137 | – | – | – | –
2 | CN(C)CCN1C(=O)c2ccc3[nH]c4ccc(O)cc4c3c2C1=O.Cl [compound 23, N-(2-dimethylaminoethyl)-6-hydroxycarbazole-3,4-dicarboximide hydrochloride] | – | 0.8 | – | 10 | 128 | > 272 | –
3 | Cc1cc2c(c3c1[nH]c1ccc(O)cc13)C(=O)N(CCN(C)C)C2=O.Cl [compound 24, N-(2-dimethylaminoethyl)-6-hydroxy-1-methylcarbazole-3,4-dicarboximide hydrochloride] | – | 0.125 | – | – | > 377 | – | 12
